Reference: patent US11001802B2, “Surface of a vessel with polystyrene, nitrogen, oxygen and a static sessile contact angle for attachment and cultivation of cells” (Nunc A/S, priority 2008, dated 2021)

System: HEK293 cells
Test: HEK293 growth over three passages, total cell number (Example 22)
Format: cell-based, human
Settings: Surface 4 and Nunclon Delta surface; 2.5 μM Y-27632
Procedure: EMEM (500 μl) supplemented with 10% FBS containing 5.0 μM Y-27632 was dispensed in wells of Multidish 24-well plates with Surface 4 or Nunclon Delta™ surface. Another 500 μl of EMEM supplemented with 10% FBS and containing HEK293 cells was added to the wells (2.0×10^4 cells/cm^2), and the cultures were incubated at 37° C. in a humidified atmosphere of 5% CO2 in air for 3 days. Cells were passaged by treatment with Trypsin/EDTA (Lonza, Verviers, Belgium) for two minutes at 37° C., and the total cell number was determined using a NucleoCount Cell Counter (Chemometec A/S, Allered, Denmark). For successive passages, HEK293 cells were seeded at 2.0×10^4 cells/cm^2. The growth of HEK293 cells on Surface 4 and Nunclon Delta™ surface was enhanced by the presence of 2.5 μM Y-27632 (FIG. 34).

C[C@@H](N)[C@H]1CC[C@H](C(=O)Nc2ccncc2)CC1 [Surface Y-27632, Y-27632]
growth of HEK293 cells over 3 passages: enhanced
